For orientation: IC50 means the concentration that gives 50% inhibition. The low end stands for greater potency, the high end for weaker potency.

The results in this text go back to patent US20210122730A1, “GLUCOCORTICOID RECEPTOR MODULATORS” (ORIC Pharmaceuticals, Inc., priority 2017, published 2021).

The target of the assay is T1, GR (Homo sapiens, UniProt P04150).
T1 construct: expressed in transfected cells; host or cells: CHO-K1
T1 sequence (P04150 1-777): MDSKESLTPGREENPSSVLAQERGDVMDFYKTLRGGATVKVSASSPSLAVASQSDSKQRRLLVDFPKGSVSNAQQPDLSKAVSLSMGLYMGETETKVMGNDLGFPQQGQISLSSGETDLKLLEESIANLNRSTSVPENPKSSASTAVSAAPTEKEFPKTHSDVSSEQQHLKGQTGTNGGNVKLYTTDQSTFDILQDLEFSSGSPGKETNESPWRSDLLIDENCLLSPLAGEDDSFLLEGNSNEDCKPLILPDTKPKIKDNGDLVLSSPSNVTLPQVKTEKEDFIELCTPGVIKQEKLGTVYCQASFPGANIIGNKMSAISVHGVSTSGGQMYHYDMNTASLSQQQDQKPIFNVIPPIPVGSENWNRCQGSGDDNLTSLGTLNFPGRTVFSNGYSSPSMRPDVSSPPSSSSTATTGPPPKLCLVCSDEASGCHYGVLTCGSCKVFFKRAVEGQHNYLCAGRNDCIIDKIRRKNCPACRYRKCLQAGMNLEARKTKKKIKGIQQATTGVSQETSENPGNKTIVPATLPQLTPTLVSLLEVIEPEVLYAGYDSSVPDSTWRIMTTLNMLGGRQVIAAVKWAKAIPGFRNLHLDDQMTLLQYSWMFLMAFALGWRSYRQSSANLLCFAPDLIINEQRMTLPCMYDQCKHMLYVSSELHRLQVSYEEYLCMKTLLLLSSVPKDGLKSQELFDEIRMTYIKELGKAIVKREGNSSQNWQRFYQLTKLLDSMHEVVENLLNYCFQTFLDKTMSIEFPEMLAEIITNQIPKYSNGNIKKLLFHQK
As to the kind of experiment: In Vitro GR Luciferase Reporter Assay (antagonist mode, CHO-K1-GR-MMTV-Luc reporter cells). It is filed as cell-based. The conditions noted are these: antagonist assay with 10 nM Dexamethasone, 18-24 hours. The text has this: Example A: In Vitro GR Luciferase Reporter Assay
Cell Line: CHO-K1-GR-MMTV-Luc reporter cells
Culture Media: DMEM (with phenol red)+10% FBS
Assay Media: DMEM (without phenol red)+10% CSS
Culture CHO-K1I-GR-MMTV-Luc reporter cells in 15 cm plates in Culture Media at conditions less than 90% confluence.
Prepare 200×DMSO 1:5 serial dilutions of control and test compounds in 96-well non-sterile V bottom plate in DMSO, 8serial dilutions for each compound.
Prepare 5× Assay Media diluted compound serial dilutions in 96-well non-sterile V bottom plate: Add 97.5 uL/well of Assay Media into 96-well then add 2.5 ul of 200× concentration of compounds and mix well.
Seed cells for Antagonist Assay: […] CHO-K1-GR-MMTV-Luc reporter cells were seeded in a Corning 3707 flat clear bottom 384-well white TC plate in 20 ul of Assay Media containing 12.5 nM Dexamethasone (final concentration=10 nM).
Add compounds: 5 ul of assay media diluted compounds were added to appropriate wells and followed a quick spin (1000 rpm, 10 sec) to bring media and cells to the bottom of plate. The plates were covered with SealMate film to avoid evaporation and placed in 37° C. incubator for approximately 18-24 hours.
Read plates: Equilibrate appropriate amount of Promega OneGlo luciferase reagent to room temperature. Remove the plates from incubator and add 25 uL of OneGlo reagent/well by multiple channel pipette and read the plates with Tecan F500 luminometer within 3 minutes.
The ability of the compounds disclosed herein to inhibit GR activity was quantified and the respective IC50 value was determined. Table 1and Table 2provide the cellular IC50 values of compounds disclosed herein.
(A reporter such as luciferase makes a cellular process visible.)
Turning to `O=C(c1ccccn1)[C@]12Cc3cnn(-c4ccc(F)cc4)c3C=C1CC[C@@H](S(=O)(=O)c1ccc(F)c(F)c1)C2` [Example 16, ((4aS,6R)-6-((3,4-difluorophenyl)sulfonyl)-1-(4-fluorophenyl)-1,4,5,6,7,8-hexahydro-4aH-benzo[f]indazol-4a-yl)(pyridin-2-yl)methanone], the IC50 was at most 100 nM.
The same measure for `O=C(c1cc(C(F)(F)F)ccn1)[C@]12Cc3cnn(-c4ccc(F)cc4)c3C=C1CC[C@@H](S(=O)(=O)c1cccc(C(F)(F)F)c1)C2` [Example 17, ((4aS,6R)-1-(4-fluorophenyl)-6-((3-(trifluoromethyl)phenyl)sulfonyl)-1,4,5,6,7,8-hexahydro-4aH-benzo[f]indazol-4a-yl)(4-(trifluoromethyl)pyridin-2-yl)methanone]: at most 100 nM; for `O=C(c1ccccn1)[C@]12Cc3cnn(-c4ccc(F)cc4)c3C=C1CC[C@@H](S(=O)(=O)c1cccc(C(F)(F)F)c1)C2` [Example 18, ((4aS,6R)-1-(4-fluorophenyl)-6-((3-(trifluoromethyl)phenyl)sulfonyl)-1,4,5,6,7,8-hexahydro-4aH-benzo[f]indazol-4a-yl)(pyridin-2-yl)methanone]: at most 100 nM; for `COc1ccc(S(=O)(=O)[C@H]2CCC3=Cc4c(cnn4-c4ccc(F)cc4)C[C@]3(C(=O)c3ccccn3)C2)cc1` [Example 19, ((4aS,6S)-1-(4-fluorophenyl)-6-((4-methoxyphenyl)sulfonyl)-1,4,5,6,7,8-hexahydro-4aH-benzo[f]indazol-4a-yl)(pyridin-2-yl)methanone]: at most 100 nM.
Consider `O=C(c1ccccn1)[C@]12Cc3cnn(-c4ccc(F)cc4)c3C=C1CC[C@H](S(=O)(=O)c1ccccc1)C2` [Example 20, ((4aS,6S)-1-(4-fluorophenyl)-6-(phenylsulfonyl)-1,4,5,6,7,8-hexahydro-4aH-benzo[f]indazol-4a-yl)(pyridin-2-yl)methanone], for which the IC50 was at most 100 nM.
The same measure for `O=C(c1ccccn1)[C@]12Cc3cnn(-c4ccc(F)cc4)c3C=C1CC[C@H](S(=O)(=O)Cc1ccccc1)C2` [Example 21, ((4aS,6S)-6-(benzylsulfonyl)-1-(4-fluorophenyl)-1,4,5,6,7,8-hexahydro-4aH-benzo[f]indazol-4a-yl)(pyridin-2-yl)methanone]: at most 100 nM.
The same measure for `O=C(c1ccccn1)[C@]12Cc3cnn(-c4ccc(F)cc4)c3C=C1CC[C@H](S(=O)(=O)c1ccc(F)c(F)c1)C2` [Example 22, ((4aS,6S)-6-((3,4-difluorophenyl)sulfonyl)-1-(4-fluorophenyl)-1,4,5,6,7,8-hexahydro-4aH-benzo[f]indazol-4a-yl)(pyridin-2-yl)methanone]: at most 100 nM; for `Cc1ccnc(C(=O)[C@]23Cc4cnn(-c5ccc(F)cc5)c4C=C2CC[C@H](S(=O)(=O)c2cnn(C)c2)C3)c1` [Example 23, ((4aS,6S)-1-(4-fluorophenyl)-6-((1-methyl-1H-pyrazol-4-yl)sulfonyl)-1,4,5,6,7,8-hexahydro-4aH-benzo[f]indazol-4a-yl)(4-methylpyridin-2-yl)methanone]: at most 100 nM; for `O=C(c1ccccn1)[C@]12Cc3cnn(-c4ccc(F)cc4)c3C=C1CC[C@@H](S(=O)(=O)c1ccccc1)C2` [Example 24, ((4aS,6R)-1-(4-fluorophenyl)-6-(phenylsulfonyl)-1,4,5,6,7,8-hexahydro-4aH-benzo[f]indazol-4a-yl)(pyridin-2-yl)methanone]: at most 100 nM.
`O=C(c1ccccn1)[C@]12Cc3cnn(-c4ccc(F)cc4)c3C=C1CC[C@H](S(=O)(=O)c1ccc(F)cc1)C2` [Example 25, ((4aS,6S)-1-(4-fluorophenyl)-6-((4-fluorophenyl)sulfonyl)-1,4,5,6,7,8-hexahydro-4aH-benzo[f]indazol-4a-yl)(pyridin-2-yl)methanone] gave an IC50 of at most 100 nM.
Compound `O=C(c1ccccn1)[C@]12Cc3cnn(-c4ccc(F)cc4)c3C=C1CC[C@H](S(=O)(=O)c1ccccn1)C2` [Example 26, ((4aS,6S)-1-(4-fluorophenyl)-6-(pyridin-2-ylsulfonyl)-1,4,5,6,7,8-hexahydro-4aH-benzo[f]indazol-4a-yl)(pyridin-2-yl)methanone] gave an IC50 of at most 100 nM.
`O=C(c1cc(C(F)(F)F)ccn1)[C@]12Cc3cnn(-c4ccc(F)cc4)c3C=C1CC[C@@H](S(=O)(=O)c1cnns1)C2` [Example 27, ((4aS,6R)-6-((1,2,3-thiadiazol-5-yl)sulfonyl)-1-(4-fluorophenyl)-1,4,5,6,7,8-hexahydro-4aH-benzo[f]indazol-4a-yl)(4-(trifluoromethyl)pyridin-2-yl)methanone] came in with an IC50 of 100 to 1000 nM.
Then `O=C(c1ccccn1)[C@]12Cc3cnn(-c4ccc(F)cc4)c3C=C1CC[C@H](S(=O)(=O)c1cccc(C(F)(F)F)c1)C2` [Example 28, ((4aS,6S)-1-(4-fluorophenyl)-6-((3-(trifluoromethyl)phenyl)sulfonyl)-1,4,5,6,7,8-hexahydro-4aH-benzo[f]indazol-4a-yl)(pyridin-2-yl)methanone], with at most 100 nM.
The same measure for `O=C(c1ccccn1)[C@]12Cc3cnn(-c4ccc(F)cc4)c3C=C1CC[C@@H](S(=O)(=O)c1ccc(F)cc1)C2` [Example 29, ((4aS,6R)-1-(4-fluorophenyl)-6-((4-fluorophenyl)sulfonyl)-1,4,5,6,7,8-hexahydro-4aH-benzo[f]indazol-4a-yl)(pyridin-2-yl)methanone]: 100 to 1000 nM.
Then `Cc1ccnc(C(=O)[C@]23Cc4cnn(-c5ccc(F)cc5)c4C=C2CC[C@H](S(=O)(=O)c2ccc(F)c(F)c2)C3)c1` [Example 30, ((4aS,6S)-6-((3,4-difluorophenyl)sulfonyl)-1-(4-fluorophenyl)-1,4,5,6,7,8-hexahydro-4aH-benzo[f]indazol-4a-yl)(4-methylpyridin-2-yl)methanone], with at most 100 nM.
For `Cc1ccc(C(=O)[C@]23Cc4cnn(-c5ccc(F)cc5)c4C=C2CC[C@H](S(=O)(=O)c2cccc(C(F)(F)F)c2)C3)nc1` [Example 31, ((4aS,6S)-1-(4-fluorophenyl)-6-((3-(trifluoromethyl)phenyl)sulfonyl)-1,4,5,6,7,8-hexahydro-4aH-benzo[f]indazol-4a-yl)(5-methylpyridin-2-yl)methanone], the IC50 was at most 100 nM.
Turning to `O=C(c1ccccn1)[C@]12Cc3cnn(-c4ccc(F)cc4)c3C=C1CC[C@H](S(=O)(=O)c1ccc(C(F)(F)F)cn1)C2` [Example 32, ((4aS,6S)-1-(4-fluorophenyl)-6-((5-(trifluoromethyl)pyridin-2-yl)sulfonyl)-1,4,5,6,7,8-hexahydro-4aH-benzo[f]indazol-4a-yl)(pyridin-2-yl)methanone], the IC50 is at most 100 nM.
Turning to `Cn1ncc(S(=O)(=O)[C@H]2CCC3=Cc4c(cnn4-c4ccc(F)cc4)C[C@]3(C(=O)c3cc(C(F)(F)F)ccn3)C2)n1` [Example 33, ((4aS,6S)-1-(4-fluorophenyl)-6-((2-methyl-2H-1,2,3-triazol-4-yl)sulfonyl)-1,4,5,6,7,8-hexahydro-4aH-benzo[f]indazol-4a-yl)(4-(trifluoromethyl)pyridin-2-yl)methanone], the IC50 was at most 100 nM.
`Cc1ccnc(C(=O)[C@]23Cc4cnn(-c5ccc(F)cc5)c4C=C2CC[C@H](S(=O)(=O)c2ccccn2)C3)c1` [Example 34, ((4aS,6S)-1-(4-fluorophenyl)-6-(pyridin-2-ylsulfonyl)-1,4,5,6,7,8-hexahydro-4aH-benzo[f]indazol-4a-yl)(4-methylpyridin-2-yl)methanone] displayed an IC50 of at most 100 nM.
The same measure for `O=C(c1ccccn1)[C@]12Cc3cnn(-c4ccc(F)cc4)c3C=C1CC[C@H](S(=O)(=O)C1CCCCC1)C2` [Example 35, ((4aS,6S)-6-(cyclohexylsulfonyl)-1-(4-fluorophenyl)-1,4,5,6,7,8-hexahydro-4aH-benzo[f]indazol-4a-yl)(pyridin-2-yl)methanone]: at most 100 nM.
